Reference: the supplement of paper PMC10307832

What was measured:
Experiment in all cases: relative viability (nuclei count vs DMSO), 5 days (fraction); higher = more cells survive
RO-3306 + Lapatinib = compound: C1=CC2=C(C=CC(=C2)C=C3C(=O)NC(=NCC4=CC=CS4)S3)N=C1 [RO-3306] + CS(=O)(=O)CCNCc1ccc(-c2ccc3ncnc(Nc4ccc(OCc5cccc(F)c5)c(Cl)c4)c3c2)o1 [Lapatinib] (partner 2 µM)
Outline: (§1)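 The day after seeding in 1536-well plates, lung cancer cell lines were treated by pin tool with a single drug, or with a fixed anchor-drug dose together with five library-drug doses (not always all listed) in √10 steps. After 5 days, a combined fix-and-stain solution (final 0.05% Triton X-100, 1% formaldehyde, 1 ug/ml Hoechst) was added. Nuclei counted on 4× images gave relative viability as treated counts over vehicle counts, reported as the median of duplicate plates.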

RO-3306 + Phenformin = compound: C1=CC2=C(C=CC(=C2)C=C3C(=O)NC(=NCC4=CC=CS4)S3)N=C1 [RO-3306] + N=C(N)NC(=N)NCCc1ccccc1 [Phenformin] (partner 250 µM)
Outline: as §1

[1] = compound: O=S(=O)(c1ccccc1)N(CC(F)(F)F)c1ccc(C(O)(C(F)(F)F)C(F)(F)F)cc1 + CC(=O)Nc1cccc(-n2c(=O)n(C3CC3)c(=O)c3c(Nc4ccc(I)cc4F)n(C)c(=O)c(C)c32)c1 [Trametinib] (partner 0.02 µM)
Outline: as §1

[2] = compound: O=S(=O)(c1ccccc1)N(CC(F)(F)F)c1ccc(C(O)(C(F)(F)F)C(F)(F)F)cc1 + CS(=O)(=O)N1CCN(Cc2cc3nc(-c4cccc5[nH]ncc45)nc(N4CCOCC4)c3s2)CC1 [Pictilisib] (partner 1 µM)
Outline: as §1

| Cell Line | relative viability (RO-3306 + Lapatinib; first compound 0.01 µM) | relative viability (RO-3306 + Lapatinib; first compound 0.03162 µM) | relative viability (RO-3306 + Lapatinib; first compound 0.1 µM) | relative viability (RO-3306 + Lapatinib; first compound 0.3162 µM) | relative viability (RO-3306 + Lapatinib; first compound 1 µM) | relative viability (RO-3306 + Phenformin; first compound 0.01 µM) | relative viability (RO-3306 + Phenformin; first compound 0.03162 µM) | relative viability (RO-3306 + Phenformin; first compound 0.1 µM) | relative viability (RO-3306 + Phenformin; first compound 0.3162 µM) | relative viability (RO-3306 + Phenformin; first compound 1 µM) | relative viability ([1]; first compound 0.8 µM) | relative viability ([1]; first compound 2.53 µM) | relative viability ([1]; first compound 8 µM) | relative viability ([2]; first compound 0.8 µM) | relative viability ([2]; first compound 2.53 µM) | relative viability ([2]; first compound 8 µM) |
| --- | --- | --- | --- | --- | --- | --- | --- | --- | --- | --- | --- | --- | --- | --- | --- | --- |
| NCI-H2023 | 0.769 | 0.645 | 0.822 | 1.04 | 0.683 | 0.459 | 0.38 | 0.398 | 0.403 | 0.356 | 0.593 | 0.428 | 0.358 | 0.183 | 0.221 | 0.193 |
| NCI-H2085 | 0.726 | 0.746 | 0.798 | 0.727 | 0.757 | 0.688 | 0.604 | 0.655 | 0.683 | 0.654 | 0.471 | 0.496 | 0.472 | 0.428 | 0.543 | 0.455 |
| NCI-H2087 | 0.894 | 1.12 | 1.02 | 0.968 | 0.889 | 0.526 | 0.332 | 0.423 | 0.489 | 0.372 | 0.26 | 0.173 | 0.2 | 0.868 | 0.993 | 0.848 |
| NCI-H2126 | 0.644 | 0.719 | 0.742 | 0.76 | 0.747 | 0.504 | 0.544 | 0.513 | 0.508 | 0.513 | 0.645 | 0.593 | 0.628 | 0.489 | 0.513 | 0.5 |
| NCI-H2170 | 0.254 | 0.302 | 0.272 | 0.265 | 0.302 | 0.425 | 0.422 | 0.396 | 0.383 | 0.435 | 0.973 | 0.779 | 0.814 | 0.305 | 0.291 | 0.307 |
| NCI-H2228 | 1.24 | 0.574 | 0.942 | 0.826 | 0.542 | 0.286 | 0.211 | 0.276 | 0.32 | 0.241 | 0.693 | 0.371 | 0.429 | 0.414 | 0.366 | 0.26 |
| NCI-H2347 | 0.914 | 0.932 | 0.969 | 0.897 | 0.91 | 0.347 | 0.374 | 0.384 | 0.485 | 0.384 | 0.304 | 0.277 | 0.292 | 0.516 | 0.597 | 0.81 |
| NCI-H2405 | 1.03 | 1.04 | 1.01 | 1.09 | 1.01 | 0.403 | 0.539 | 0.356 | 0.368 | 0.554 | 0.673 | 0.615 | 0.707 | 0.471 | 0.455 | 0.418 |
| NCI-H3122 | 1.1 | 1 | 1.02 | 0.997 | 0.827 | 0.419 | 0.612 | 0.397 | 0.391 | 0.665 | 0.166 | 0.143 | 0.221 | 0.477 | 0.447 | 0.416 |
| PC-3 [JPC-3] | 0.469 | 0.445 | 0.389 | 0.439 | 0.435 | 0.481 | 0.517 | 0.467 | 0.473 | 0.433 | – | 0.678 | 0.678 | 0.737 | 0.829 | 0.697 |
| PC-14 | 0.326 | 0.395 | 0.312 | 0.317 | 0.295 | 0.616 | 0.504 | 0.503 | 0.595 | 0.499 | 0.705 | 0.554 | 0.477 | 0.743 | 0.557 | 0.339 |
| RERF-LC-KJ | 0.861 | 0.842 | 0.828 | 0.864 | 0.702 | 0.428 | 0.445 | 0.416 | 0.445 | 0.407 | 0.812 | 0.721 | 0.663 | 0.557 | 0.453 | 0.5 |
| SK-LU-1 | 1.07 | 0.812 | 0.842 | 0.902 | 0.797 | 0.461 | 0.426 | 0.503 | 0.484 | 0.453 | 0.466 | 0.537 | 0.491 | 0.531 | 0.454 | 0.594 |
| SK-MES-1 | 0.449 | 0.472 | 0.444 | 0.505 | 0.471 | 0.73 | 0.605 | 0.711 | 0.621 | 0.625 | 0.546 | 0.573 | 0.59 | 0.25 | 0.235 | 0.271 |
| SW 1573 | 1.11 | 1.01 | 1.17 | 1.12 | 0.947 | 0.405 | – | 0.363 | 0.341 | 0.351 | 0.638 | 0.537 | 0.472 | 0.504 | 0.38 | 0.45 |
